Results taken from patent publication US10189809B2, “SGC stimulators” (Ironwood Pharmaceuticals, Inc., priority 2010, dated 2019).
Like-named read-outs stand apart in the source and are kept apart here.

What was measured:
[1] = target: T1, soluble guanylate cyclase (sGC) (Homo sapiens (Human), UniProt Q02108+Q02153); experiment: sGC-HEK-cGMP assay run in the absence of SNP (HEK WC assay); type: cell-based; conditions: compound at 30 μM, absence of SNP
In short: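 Intracellular cGMP was measured by LC/MS, using a standard curve, in HEK293 cells treated with compound for 10 min at 37° C after a 15 min 0.5 mM IBMX pretreatment, with no SNP present. Lysis and quench used 0.1 M HCl. EC50 values came from concentration-response fits.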

[2] = target: T1, soluble guanylate cyclase (sGC); experiment: sGC-HEK-cGMP assay run with SNP incubation (HEK WC assay); type: cell-based; conditions: for HEK WC Assay (fold increase at 30 μM in the presence of 10 μM SNP): compound at 30 μM; for EC50: in the presence of 10 uM SNP
In short: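 EC50 values derive from concentration-response curves of intracellular cGMP in HEK293 cells, which express sGC endogenously. Compound and sodium nitroprusside were co-incubated 10 min at 37 °C after a 15-min 0.5 mM IBMX step, with 0.1 M HCl lysis and 1% DMSO vehicle.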

[3] = read-out: HEK WC Assay (% Emax at 1 μM with 10 uM SNP)
[4] = read-out: HEK WC Assay (% Emax at 10 μM with 10 uM SNP)
[5] = read-out: HEK WC Assay (% Emax at 30 μM with 10 uM SNP)

T1 sequence (Q02153 whole entry): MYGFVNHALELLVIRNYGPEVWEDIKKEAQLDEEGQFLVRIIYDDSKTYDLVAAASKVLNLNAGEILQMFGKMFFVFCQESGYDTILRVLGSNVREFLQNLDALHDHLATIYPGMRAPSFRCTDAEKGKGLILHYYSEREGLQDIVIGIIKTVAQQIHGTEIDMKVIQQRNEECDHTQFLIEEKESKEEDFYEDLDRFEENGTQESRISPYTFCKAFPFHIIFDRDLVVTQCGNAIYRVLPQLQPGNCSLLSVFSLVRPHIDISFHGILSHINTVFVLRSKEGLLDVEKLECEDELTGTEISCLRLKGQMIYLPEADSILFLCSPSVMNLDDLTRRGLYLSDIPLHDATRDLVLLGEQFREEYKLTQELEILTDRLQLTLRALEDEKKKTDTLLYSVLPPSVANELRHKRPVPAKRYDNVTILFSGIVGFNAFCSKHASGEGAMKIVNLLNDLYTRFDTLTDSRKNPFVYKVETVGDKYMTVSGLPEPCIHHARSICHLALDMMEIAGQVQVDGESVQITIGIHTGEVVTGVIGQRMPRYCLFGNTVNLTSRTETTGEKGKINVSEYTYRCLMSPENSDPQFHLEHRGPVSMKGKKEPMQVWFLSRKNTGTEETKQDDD
T1 sequence (Q02108 whole entry): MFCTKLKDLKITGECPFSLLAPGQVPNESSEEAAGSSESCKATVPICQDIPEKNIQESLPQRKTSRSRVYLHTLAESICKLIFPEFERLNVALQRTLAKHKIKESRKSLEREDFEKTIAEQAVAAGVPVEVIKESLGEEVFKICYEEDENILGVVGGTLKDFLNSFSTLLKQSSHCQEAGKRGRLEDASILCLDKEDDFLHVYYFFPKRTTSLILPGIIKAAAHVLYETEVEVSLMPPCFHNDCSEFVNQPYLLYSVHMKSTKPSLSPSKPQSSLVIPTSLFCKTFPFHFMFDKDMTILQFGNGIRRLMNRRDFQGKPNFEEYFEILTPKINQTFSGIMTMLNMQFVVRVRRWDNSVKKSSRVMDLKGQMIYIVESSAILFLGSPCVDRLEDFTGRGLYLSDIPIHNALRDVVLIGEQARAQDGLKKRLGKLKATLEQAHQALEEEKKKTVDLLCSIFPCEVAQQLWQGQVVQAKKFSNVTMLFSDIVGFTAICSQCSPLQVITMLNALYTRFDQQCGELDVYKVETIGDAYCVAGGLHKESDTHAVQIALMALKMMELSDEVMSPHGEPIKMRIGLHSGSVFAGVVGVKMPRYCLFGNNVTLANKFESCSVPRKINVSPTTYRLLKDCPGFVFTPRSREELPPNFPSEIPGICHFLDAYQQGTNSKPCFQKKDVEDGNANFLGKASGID

| Compound | HEK WC Assay (fold increase at 30 μM in the absence of SNP) [1] | HEK WC Assay (fold increase at 30 μM in the presence of 10 μM SNP) [2] | EC50 [2] | Emax [2, 3] | Emax [2, 4] | Emax [2, 5] |
| --- | --- | --- | --- | --- | --- | --- |
| CN(C(=O)C(C)(C)C)c1cnc(-c2cc(-c3ccon3)n(Cc3ccccc3F)n2)nc1N [Compound I-234] | C (C = 2 to <5 fold increase) | E (E = 10 to <20 fold increase) | < 20 µM | 20 to 40% | 40 to 60% | 40 to 60% |
| Fc1ccccc1Cn1nc(-c2ncccn2)cc1C1CCC1 [Compound I-307] | C (C = 2 to <5 fold increase) | C (C = 2 to <5 fold increase) |  |  | 0 to 10% | 0 to 10% |
| Oc1nc(-c2cc(-c3ccon3)n(Cc3ccccc3F)n2)ncc1-c1ccncc1 [Compound I-163] | C (C = 2 to <5 fold increase) | E (E = 10 to <20 fold increase) |  |  | 40 to 60% | 40 to 60% |
| Fc1ccccc1Cn1nc(-c2cccc(Br)n2)cc1-c1ccccn1 [Compound I-308, 2-Bromo-6-(1-(2-fluorobenzyl)-5-(pyridin-2-yl)-1H-pyrazol-3-yl)pyridine] | B (B = 1 to <2 fold increase) | B (B = 1 to <2 fold increase) |  |  | 0 to 10% | 0 to 10% |
| CO[C@@](C(=O)Nc1cnc(-c2cc(-c3ccon3)n(Cc3ccccc3F)n2)nc1N)(c1ccccc1)C(F)(F)F [Compound I-229] | C (C = 2 to <5 fold increase) | E (E = 10 to <20 fold increase) | 20 to 40 µM | 20 to 40% | 40 to 60% | 20 to 40% |
| CC(C)(O)C(=O)Nc1cnc(-c2cc(-c3ccon3)n(Cc3ccccc3F)n2)nc1N [Compound I-209] | C (C = 2 to <5 fold increase) | E (E = 10 to <20 fold increase) | 20 to 40 µM | 10 to 20% | 20 to 40% | 40 to 60% |
| Cc1cc(O)nc(-c2cc(-c3ccon3)n(Cc3ccccc3F)n2)n1 [Compound I-298] | B (B = 1 to <2 fold increase) | C (C = 2 to <5 fold increase) |  |  | 10 to 20% | 20 to 40% |
| Fc1cccc(Cn2nc(-c3ncccn3)cc2-c2ccon2)c1 [Compound I-202] | C (C = 2 to <5 fold increase) | E (E = 10 to <20 fold increase) | < 20 µM | 20 to 40% | 40 to 60% | 40 to 60% |
| OCCc1cnc(-c2cc(-c3ccon3)n(Cc3ccccc3F)n2)nc1O [Compound I-210] | C (C = 2 to <5 fold increase) | D (D = 5 to <10 fold increase) | 60 to 100 µM | 0 to 10% | 10 to 20% | 20 to 40% |
| Fc1ccccc1Cn1nc(-c2ccccn2)cc1-c1cncs1 [Compound I-311] | B (B = 1 to <2 fold increase) | C (C = 2 to <5 fold increase) |  |  | 0 to 10% | 0 to 10% |
| Cc1cc(Cl)nc(-c2cc(-c3ccon3)n(Cc3ccccc3F)n2)n1 [Compound I-299] | C (C = 2 to <5 fold increase) | F (F = 20 to <30 fold increase) | < 20 µM |  | 60 to 80% | 60 to 80% |
| Nc1nc(-c2cc(-c3ccon3)n(Cc3ccccc3F)n2)ncc1NC(=O)C(F)(F)c1ccccc1 [Compound I-244] | D (D = 5 to <10 fold increase) | E (E = 10 to <20 fold increase) | 20 to 40 µM | 20 to 40% | 40 to 60% | 40 to 60% |
| Nc1nc(-c2cc(-c3ccon3)n(Cc3ccccc3F)n2)ncc1NC(=O)C1(c2ccccc2)CCC1 [Compound I-218] | D (D = 5 to <10 fold increase) | E (E = 10 to <20 fold increase) | 20 to 40 µM | 40 to 60% | 40 to 60% | 20 to 40% |
| c1cnc(-c2cc(-c3ccon3)n(Cc3cscn3)n2)nc1 [Compound I-204] | B (B = 1 to <2 fold increase) | C (C = 2 to <5 fold increase) |  | 0 to 10% | 0 to 10% | 0 to 10% |
